Results as given in US10428028B2, “HDAC inhibitors” (BIOMARIN PHARMACEUTICAL INC., priority 2013, dated 2019).

Test system: Frataxin (FXN) mRNA
Assay: Effect of HDAC inhibitors on frataxin (FXN) mRNA expression
Format: cell-based, human (Friedreich's ataxia patient primary lymphocytes)
Conditions: Friedreich's ataxia patient primary lymphocytes, 48 hours
Procedure: Blood is collected from Friedreich's ataxia patient donors into tubes containing the anti-coagulant EDTA. Primary lymphocytes are isolated using Lymphocyte Separation Medium (MP Biomedicals, Solon, Ohio) following the manufacturer's instructions and including a few modifications made by Repligen. After a final wash in Phosphate Buffered Saline (PBS), the cells are distributed into a 6-well cell culture plate in cell growth medium. The test HDAC inhibitor compound is added to cells in a dose escalating manner (usually concentrations range from 1 to 10 μM) and 0.1% DMSO is added to one well of cells as a no treatment control. […] The RNA yield and concentration is determined using a Nanodrop spectrophotometer (Thermo Fisher Scientific, Waltham, Mass.) and depending on the RNA concentration, one of two protocols is used to measure frataxin (FXN) transcript levels. […] In both methods each RNA sample is analyzed in triplicate (preferably) or duplicate (minimally) using a one-step qRT-PCR master mix that contains all the components necessary for cDNA synthesis and PCR amplification in a single, continuous reaction. […] The amount of FXN (or GAPDH) in the sample is determined as the relative quantity to the calibrator where the calibrator sample is assigned an arbitrary quantity of 1. […] The relative quantity of FXN is normalized to cell number and RNA input. […]

Structure (SMILES) | Fxn >2X (concentration required for a 2-fold increase in FXN mRNA)
Nc1ccccc1NC(=O)c1ccc2c(cnn2Cc2ccc(F)c(F)c2)c1 [Compound A9] | A (A if less than 5 μM)
Nc1cc(F)ccc1NC(=O)c1ccc2c(cnn2CC2CC2)c1 [Compound A12] | C (C if greater than 10 μM)
